Values belong to the compound of their own block, whether it stands above or below them.
Experiments:
AUT-PK 500 [1] = assay: Protein kinase assay: autophosphorylation of AUT-PK 500 (32P incorporation from [gamma-32P] ATP); type: biochemical, rat; details: for effect on the autophosphorylation of AUT-PK 500: filter assay or radioautography of SDS gel; for ^32 P Incorporated (autophosphorylation of AUT-PK 500): 1 microgram enzyme; for concentration giving peak activity of the enzyme / maximal activation, relative to that obtained by Mn^2+ or Mg^2+ / EC50: divalent cations; for influence of sulfhydryl group inhibitors on AUT-PK 500 activity: see Table IV; for EC50: read-out: concentration resulting in half-maximal stimulation of AUT-PK 500; for effect on the AUT-PK 500 activity: monovalent cations, concentrations of up to 100 mM
Description: ATP into an appropriate substrate. […] ATP (400-600 cpm/pmol) and an appropriate amount of the enzyme. The reaction was incubated at 37° C. for one minute or as specified under experimental conditions, and was terminated by the addition of 2 ml of ice-cold 10% trichloroacetic acid followed by the addition of 500 micrograms of bovine serum albumin. The precipitate was immediately filtered on a GF/C filter and washed three times with 2 ml of ice-cold 10% trichloroacetic acid. The filter was dried and counted in a cocktail of Omnifluor in toluene. […]
Autophosphorylation of AUT-PK 500 was also analyzed by one-dimensional SDS-polyacrylamide gel electrophoresis. […] ATP. […] The phosphorylated sample was applied to 6% acrylamide containing 0.1% SDS and 0.3% Bis. Electrophoresis was conducted in the presence of Tris-glycine buffer, pH 8.3.

AUT-PK 500 [2] = assay: Phosphorylation of exogenous substrates by AUT-PK 500; type: biochemical, rat
Description: Protein kinase activity was measured by the incorporation of ^32 P from [gamma-^32 P] ATP into an appropriate substrate. The 250-microliter reaction mixture contained 20 mM Tris-HCl, pH 7.5, 10 mM Mg^2+, 2.5×10^-6 M [gamma-^32 P] ATP (400-600 cpm/pmol) and an appropriate amount of the enzyme. The reaction was incubated at 37° C. for one minute or as specified under experimental conditions, and was terminated by the addition of 2 ml of ice-cold 10% trichloroacetic acid followed by the addition of 500 micrograms of bovine serum albumin. The precipitate was immediately filtered on a GF/C filter and washed three times with 2 ml of ice-cold 10% trichloroacetic acid. The filter was dried and counted in a cocktail of Omnifluor in toluene.
Most of the known cyclic nucleotide-dependent or -independent protein kinases catalyze the phosphorylation of one or more of the commonly used exogenous substrates such as histone, casein, protamine, and phosvitin. […] In order to confirm this conclusion, AUT-PK 500 was incubated with [gamma-^32 P] ATP and histone in the presence or absence of cyclic AMP, then subjected to SDS-polyacrylamide gel electrophoresis and analyzed by radioautography.

[3] = concentrations of up to 200 micrograms/ml
[4] = Table IV, -SH group inhibitor 5 mM, enzyme alone 18,500 cpm
[5] = Table II, addition 10 micrograms, enzyme alone 16,000 cpm

Compound: polyarginine
effect on the autophosphorylation of AUT-PK 500 (AUT-PK 500 [1]; [3]): No effect

Compound: CCN1C(=O)C=CC1=O [N--Ethylmaleimide, N-ethylmaleimide]
^32 P Incorporated (autophosphorylation of AUT-PK 500) (AUT-PK 500 [1]; [4]): 18,000 cpm
influence of sulfhydryl group inhibitors on AUT-PK 500 activity (AUT-PK 500 [1]): did not influence

Compound: NC(=O)CI [Iodoacetamide]
^32 P Incorporated (autophosphorylation of AUT-PK 500) (AUT-PK 500 [1]; [4]): 18,600 cpm

Compound: Calmodulin
^32 P Incorporated (autophosphorylation of AUT-PK 500) (AUT-PK 500 [1]; Table III, 100 microgram/ml, enzyme alone 18,500 cpm): 17,400 cpm

Compound: O=S(=O)(O)c1cc[c]([Hg][Cl])cc1 [p-chloromercuriphenylsulfonic acid]
^32 P Incorporated (autophosphorylation of AUT-PK 500) (AUT-PK 500 [1]; [4]): 18,300 cpm
influence of sulfhydryl group inhibitors on AUT-PK 500 activity (AUT-PK 500 [1]): did not influence

Compound: [Sr+2] [Sr^2+]
concentration giving peak activity of the enzyme (AUT-PK 500 [1]): 50 mM
maximal activation, relative to that obtained by Mn^2+ or Mg^2+ (AUT-PK 500 [1]): of the same order
EC50 (AUT-PK 500 [1]): 2500 µM

Compound: polylysine
effect on the autophosphorylation of AUT-PK 500 (AUT-PK 500 [1]; [3]): No effect

Compound: NCCCCNCCCN [spermidine]
effect on the autophosphorylation of AUT-PK 500 (AUT-PK 500 [1]; polyamines each at 1 mM): No effect

Compound: NCCCCN [putrescine]
effect on the autophosphorylation of AUT-PK 500 (AUT-PK 500 [1]; polyamines each at 1 mM): No effect

Compound: NCCCNCCCCNCCCN [spermine]
effect on the autophosphorylation of AUT-PK 500 (AUT-PK 500 [1]; polyamines each at 1 mM): No effect

Compound: lithium
effect on the AUT-PK 500 activity (AUT-PK 500 [1]): no significant effect

Compound: Protamine
effect of exogenous substrate proteins on the phosphorylation of AUT-PK 500 (AUT-PK 500 [1]; Table II): None of these proteins affected the phosphorylation
^32 P Incorporated (autophosphorylation of AUT-PK 500) (AUT-PK 500 [1]; [5]): 12,000 cpm

Compound: Casein
effect of exogenous substrate proteins on the phosphorylation of AUT-PK 500 (AUT-PK 500 [1]; Table II): None of these proteins affected the phosphorylation
^32 P Incorporated (autophosphorylation of AUT-PK 500) (AUT-PK 500 [1]; [5]): 10,000 cpm
phosphorylation of the substrate by AUT-PK 500 (AUT-PK 500 [2]): did not phosphorylate

Now from value to compound, other results behind:

^32 P Incorporated (autophosphorylation of AUT-PK 500) (AUT-PK 500 [1]; Table III, 0.4 mM, enzyme alone 18,500 cpm): 17,000 cpm
effect on AUT-PK 500 activity (AUT-PK 500 [1]; calcium or calcium-calmodulin, Table III): not affected
concentration giving peak activity of the enzyme (AUT-PK 500 [1]): 20 mM
maximal activation, relative to that obtained by Mn^2+ or Mg^2+ (AUT-PK 500 [1]): 60%
Compound: [Ca+2] [Ca^2+]

concentration giving peak activity of the enzyme (AUT-PK 500 [1]): 5 mM
maximal activation, relative to that obtained by Mn^2+ or Mg^2+ (AUT-PK 500 [1]): 40%
EC50 (AUT-PK 500 [1]): 2500 µM
Compound: [Co+2] [Co^2+]

effect on the AUT-PK 500 activity (AUT-PK 500 [1]): no significant effect
Compound: [Na+] [sodium]

dependence of AUT-PK 500 activity on cyclic nucleotides / blockage by heat-stable inhibitor (AUT-PK 500 [1]): independent
^32 P Incorporated (autophosphorylation of AUT-PK 500) (AUT-PK 500 [1]; Table II, cyclic nucleotide 1 microM, enzyme alone 16,000 cpm): 16,300 cpm
Compound: Nc1nc2c(ncn2[C@@H]2O[C@@H]3COP(=O)(O)O[C@H]3[C@H]2O)c(=O)[nH]1 [Cyclic GMP]

concentration giving peak activity of the enzyme (AUT-PK 500 [1]): 10 mM
EC50 (AUT-PK 500 [1]): 2500 µM
Compound: [Mg+2] [Mg^2+]

inhibition of AUT-PK 500 activity (AUT-PK 500 [1]; EGTA (Table III, 0.8 mM), explained by partial chelation of Mg^2+): 23.2%
^32 P Incorporated (autophosphorylation of AUT-PK 500) (AUT-PK 500 [1]; Table III, 0.8 mM, enzyme alone 18,500 cpm): 14,200 cpm
Compound: O=C(O)CN(CCOCCOCCN(CC(=O)O)CC(=O)O)CC(=O)O [EGTA, 1,2-di(2-aminoethoxy)ethane-N,N,N',N'-tetraacetic acid]

effect on the ATP-dependent rate of self-phosphorylation (AUT-PK 500 [1]): did not affect
Compound: Nc1nc2c(ncn2[C@@H]2O[C@H](COP(=O)(O)OP(=O)(O)OP(=O)(O)O)[C@@H](O)[C@H]2O)c(=O)[nH]1 [GTP]
incorporation of radioactivity with [gamma-^32 P] GTP as phosphate donor (AUT-PK 500 [1]; GTP in place of ATP): no incorporation of radioactivity was observed

effect on the AUT-PK 500 activity (AUT-PK 500 [1]): no significant effect
Compound: [K+] [potassium]

concentration giving peak activity of the enzyme (AUT-PK 500 [1]): 5 mM
EC50 (AUT-PK 500 [1]): 2500 µM
Compound: [Mn+2] [Mn^2+]
